Values joined by “and” are separate entries in the source; they are usually repeats but may differ in a detail not shown here. Equal entries are not always repeated. Where no end group is shown, it is not given here.
Legend:
[1] = molecular target: T1, CheB2 D55E mutant protein (Pseudomonas aeruginosa, UniProt Q9I6V9, D55E); assay: Microcalorimetric titration (ITC) of the CheB2 D55E mutant with the GWEEF peptide; format: binding, Pseudomonas aeruginosa PAO1
T1 construct: His-tag (pET28b) (N); made in house; host or cells: E. coli BL21 (DE3)
T1 sequence (Q9I6V9 1-349 D55E): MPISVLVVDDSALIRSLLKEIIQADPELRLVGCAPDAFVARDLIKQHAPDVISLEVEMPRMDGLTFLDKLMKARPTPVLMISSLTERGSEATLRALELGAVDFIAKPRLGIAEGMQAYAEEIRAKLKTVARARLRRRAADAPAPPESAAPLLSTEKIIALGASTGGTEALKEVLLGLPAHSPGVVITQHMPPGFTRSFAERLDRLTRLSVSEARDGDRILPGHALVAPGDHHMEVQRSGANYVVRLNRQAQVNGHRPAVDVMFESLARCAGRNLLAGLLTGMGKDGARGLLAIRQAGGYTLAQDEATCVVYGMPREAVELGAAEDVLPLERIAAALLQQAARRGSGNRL
Protocol: (§1) All experiments were conducted on a VP microcalorimeter (Microcal, Amherst, MA, USA) at 25 °C. For the analysis of the CheB homologs of P. aeruginosa, 15–40 μM of proteins (dialyzed into 5-mM Tris/HCl, 5-mM Pipes, and 5-mM Mes, pH 7.0) were placed into the sample cell and titrated with 1–7-mM solution of the GWEEF peptide (synthesized by Biomedal S.L., Seville, Spain). […] All ligand solutions were prepared in dialysis buffer immediately before use. The mean enthalpies measured from the injection of the peptide into the buffer were subtracted from the raw titration data prior to data analysis with the “one binding site model” of the MicroCal version of ORIGIN.

CheB2 = molecular target: T2, CheB2 (Pseudomonas aeruginosa, UniProt Q9I6V9); assay: Microcalorimetric titration (ITC) of CheB2 with the McpB pentapeptide; parameters: species or system Pseudomonas aeruginosa PAO1; conditions: 25 °C, 15-40 μM protein in 5-mM Tris/HCl, 5-mM Pipes, 5-mM Mes, pH 7.0, titrated with 1-7 mM peptide, one binding site model, read-out: dissociation constant (KD)
T2 construct: His-tag (pET28b) (N); made in house; host or cells: E. coli BL21 (DE3)
T2 sequence (Q9I6V9 whole entry): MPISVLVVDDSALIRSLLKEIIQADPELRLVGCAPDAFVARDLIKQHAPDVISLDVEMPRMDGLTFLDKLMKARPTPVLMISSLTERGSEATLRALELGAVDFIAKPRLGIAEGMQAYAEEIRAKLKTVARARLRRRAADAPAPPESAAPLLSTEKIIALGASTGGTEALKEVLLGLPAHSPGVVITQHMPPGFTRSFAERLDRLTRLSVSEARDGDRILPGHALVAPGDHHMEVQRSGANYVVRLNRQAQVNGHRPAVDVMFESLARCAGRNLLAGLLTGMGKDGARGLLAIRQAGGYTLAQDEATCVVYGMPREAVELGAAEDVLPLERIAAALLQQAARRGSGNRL
Protocol: To verify which CheB homolog interacts with this peptide, the four CheB homologs were overexpressed in E. coli, purified, and submitted to microcalorimetric titrations with the pentapeptide of the McpB receptor, GWEEF.
Microcalorimetric titrations of the four CheB homologs (15 to 40 μM) with 14-μL aliquots (1 to 7 mM) of the GWEEF pentapeptide. […] Data were fitted using the “one binding site model” of the MicroCal version of ORIGIN.
as §1

CheR from E. coli = conditions: cited from earlier work
From the text: This pentapeptide, NWETF, represents an additional binding site for CheR and CheB [8, 9]. […] St ...

Q: Which results are given for GWEEF [GWEEF]?
A: Kd [1]: 56 ± 14 µM; Kd (CheB2): 0.093 mM

Q: With “NWETF [C-terminal pentapeptide of E. coli Tar/Tsr and of eight P. atrosepticum SCRI1043 chemoreceptors]” as the substance, how does the Kd (CheR from E. coli) read?
A: 2 µM and ~2 µM

Source: PMC7698151, “Evidence for Pentapeptide-Dependent and Independent CheB Methylesterases” (International Journal of Molecular Sciences, 2020)
